In patent US20230114728A1 (Venatorx Pharmaceuticals, Inc., priority 2019, published 2023):
≈ marks a conversion by molar mass, not a printed value.

Legend:
P. aeruginosa PBP3 = target: T1, P. aeruginosa PBP3 (Pseudomonas aeruginosa, UniProt G3XD46); assay: Bocillin-FL fluorescence polarization competition binding assay, P. aeruginosa PBP3; conditions: fluorescence polarization competition binding assay using Bocillin-FL
T1 construct: made in house
Outline: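 Inhibitor competition with Bocillin-FL for P. aeruginosa PBP3 was followed by fluorescence polarization on a Cytation3 (BioTek) reader, using g-factor 0.96, 490 nm excitation and 520 nm emission. The enzyme was at 0.75 μM and the probe at 0.1 μM in Hepes/NaCl/glycerol buffer, 80 μl per well. FP was recorded immediately after probe addition for up to 60 minutes. Potency was expressed as EC50, the concentration that reduces bound probe by 50%.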

E. coli K12 PBP3 = target: T2, E. coli K12 PBP3 (Escherichia coli, UniProt P0AD68); assay: biochemical; format: binding
T2 construct: made in house
Outline: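 A. baumannii PBP2 (2.5 μM) and PBP3 (0.2 μM) were run in 25 mM Tris pH 8.0 buffer with Tween 20; E. coli PBP3 (1.5 μM) and N. gonorrhoeae PBP2 ([…]) in 50 mM Hepes pH 8.0 buffer.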

P. aeruginosa ATCC 27853 = assay: Broth microdilution MIC in CAMHB; format: cell-based; conditions: Pseudomonas aeruginosa, ATCC27853; MHB; read-out: Minimum Inhibitory Concentration, P. aeruginosa ATCC 27853
Outline: (§1)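 Hyper-permeable or efflux-deficient strains serve to probe outer-membrane penetration. Growth inhibition is scored visually after 16-20 h at 37° C in CAMHB, starting from 2-8×10^5 CFU/mL.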

[1] = system: P. aeruginosa (ΔmexAB-oprM); assay: Broth microdilution MIC in CAMHB; format: cell-based; conditions: Pseudomonas aeruginosa, read-out: Minimum Inhibitory Concentration, P. aeruginosa ΔmexAB-OprM
Outline: as §1

[2] = system: K. pneumoniae 848844 producing SHV-11 and KPC-2; assay: Broth microdilution MIC in CAMHB; format: cell-based; conditions: Klebsiella pneumoniae, read-out: Minimum Inhibitory Concentration, K. pneumoniae 848844
Outline: as §1

[3] = system: K. pneumoniae SI-117 producing VIM-1; assay: Broth microdilution MIC in CAMHB; format: cell-based; conditions: Klebsiella pneumoniae, read-out: Minimum Inhibitory Concentration, K. pneumoniae SI-117
Outline: as §1

[4] = system: K. pneumoniae UMM producing SHV-5 and KPC-2; assay: Broth microdilution MIC in CAMHB; format: cell-based; conditions: Klebsiella pneumoniae, read-out: Minimum Inhibitory Concentration, K. pneumoniae UMM
Outline: as §1

E. coli 901C = assay: Broth microdilution MIC in CAMHB; format: cell-based; conditions: Escherichia coli; E. coli 901C (hyper-permeable); MHB; read-out: Minimum Inhibitory Concentration, E. coli 901C
Outline: as §1

P. aeruginosa ATCC 35151 = assay: Broth microdilution MIC in CAMHB; format: cell-based; conditions: Pseudomonas aeruginosa, ATCC35151; MHB; hyper-permeable strain; read-out: Minimum Inhibitory Concentration, P. aeruginosa ATCC 35151
Outline: as §1

T1 sequence (G3XD46 whole entry): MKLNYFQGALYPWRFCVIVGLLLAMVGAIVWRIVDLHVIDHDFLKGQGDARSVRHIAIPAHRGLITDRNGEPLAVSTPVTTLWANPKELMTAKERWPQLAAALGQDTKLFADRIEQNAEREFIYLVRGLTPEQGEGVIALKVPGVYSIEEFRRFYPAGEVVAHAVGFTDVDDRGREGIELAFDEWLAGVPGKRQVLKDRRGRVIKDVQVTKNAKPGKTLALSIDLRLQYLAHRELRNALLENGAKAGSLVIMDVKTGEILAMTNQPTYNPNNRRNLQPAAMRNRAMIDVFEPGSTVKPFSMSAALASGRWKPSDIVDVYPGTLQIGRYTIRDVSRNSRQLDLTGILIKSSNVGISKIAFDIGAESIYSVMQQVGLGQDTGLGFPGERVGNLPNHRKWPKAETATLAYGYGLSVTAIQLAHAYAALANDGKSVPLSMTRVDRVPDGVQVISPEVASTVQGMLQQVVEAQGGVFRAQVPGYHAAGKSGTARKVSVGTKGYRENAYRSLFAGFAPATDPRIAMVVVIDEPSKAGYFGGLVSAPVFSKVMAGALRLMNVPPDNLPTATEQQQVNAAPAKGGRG
T2 sequence (P0AD68 1-577): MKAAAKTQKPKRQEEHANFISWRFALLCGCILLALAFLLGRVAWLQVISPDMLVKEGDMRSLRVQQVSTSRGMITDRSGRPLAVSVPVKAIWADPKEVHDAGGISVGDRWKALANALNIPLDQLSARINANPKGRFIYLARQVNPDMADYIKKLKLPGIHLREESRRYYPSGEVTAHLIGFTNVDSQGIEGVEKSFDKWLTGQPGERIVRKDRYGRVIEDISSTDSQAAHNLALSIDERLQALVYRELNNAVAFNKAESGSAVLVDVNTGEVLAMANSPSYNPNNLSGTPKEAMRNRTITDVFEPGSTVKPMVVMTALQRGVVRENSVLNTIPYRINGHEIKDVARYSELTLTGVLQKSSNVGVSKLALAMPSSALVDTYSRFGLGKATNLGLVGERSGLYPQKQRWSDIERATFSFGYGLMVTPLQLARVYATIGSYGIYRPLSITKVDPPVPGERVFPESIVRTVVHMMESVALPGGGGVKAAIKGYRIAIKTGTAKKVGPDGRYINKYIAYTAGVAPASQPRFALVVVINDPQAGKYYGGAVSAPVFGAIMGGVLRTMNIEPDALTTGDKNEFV

Row | SMILES | P. aeruginosa PBP3 Potency (P. aeruginosa PBP3) | EC50 (E. coli K12 PBP3) | MIC (P. aeruginosa ATCC 27853) | MIC [1] | MIC [2] | MIC [3] | MIC [4] | MIC (E. coli 901C) | MIC (P. aeruginosa ATCC 35151)
1 | NCCN1CCN(C(=O)N[C@H](C(=O)N[C@H]2Cc3cccc(C(=O)O)c3OB2O)c2ccc(O)cc2Cl)C(=O)C1=O (single isomer, unassigned) [Example 85] | C (C represents a potency between 10 and 30 μM) | 30 to 500 µM | > 128 µg/mL | 32 to 64 µg/mL (≈ 55.8 to 112 µM) | > 128 µg/mL | > 128 µg/mL | > 128 µg/mL | 8 to 16 µg/mL (≈ 13.9 to 27.9 µM) | 2 to 4 µg/mL (≈ 3.49 to 6.97 µM)
2 | NCCN1CCN(C(=O)N[C@@H](C(=O)N[C@H]2Cc3cccc(C(=O)O)c3OB2O)c2ccc(O)cc2Cl)C(=O)C1=O (single isomer, unassigned) [Example 86] | D (D represents a potency <10 μM) | < 30 µM | > 128 µg/mL | 8 to 16 µg/mL (≈ 13.9 to 27.9 µM) | 32 to 64 µg/mL (≈ 55.8 to 112 µM) | 32 to 64 µg/mL (≈ 55.8 to 112 µM) | 32 to 64 µg/mL (≈ 55.8 to 112 µM) | 2 to 4 µg/mL (≈ 3.49 to 6.97 µM) | 0.5 to 1 µg/mL (≈ 0.871 to 1.74 µM)
3 | NCCN1CCN(C(=O)N[C@H](C(=O)N[C@H]2Cc3cccc(C(=O)O)c3OB2O)c2ccc(O)cc2F)C(=O)C1=O (single isomer, unassigned) [Example 88] | C (C represents a potency between 10 and 30 μM) | 30 to 500 µM | > 128 µg/mL | > 128 µg/mL | > 128 µg/mL | > 128 µg/mL | > 128 µg/mL | 8 to 16 µg/mL (≈ 14.4 to 28.7 µM) | 2 to 4 µg/mL (≈ 3.59 to 7.18 µM)
4 | NCCN1CCN(C(=O)N[C@@H](C(=O)N[C@H]2Cc3cccc(C(=O)O)c3OB2O)c2ccc(O)cc2F)C(=O)C1=O (single isomer, unassigned) [Example 89] | D (D represents a potency <10 μM) | 30 to 500 µM | > 128 µg/mL | 8 to 16 µg/mL (≈ 14.4 to 28.7 µM) | 32 to 64 µg/mL (≈ 57.4 to 115 µM) | 32 to 64 µg/mL (≈ 57.4 to 115 µM) | 32 to 64 µg/mL (≈ 57.4 to 115 µM) | 2 to 4 µg/mL (≈ 3.59 to 7.18 µM) | 0.5 to 1 µg/mL (≈ 0.897 to 1.79 µM)
5 | CCN1CCN(C(=O)N[C@@H](C(=O)N[C@H]2Cc3cccc(C(=O)O)c3OB2O)c2cc(Cl)c(O)cc2Cl)C(=O)C1=O (single isomer, unassigned) [Example 91] | D (D represents a potency <10 μM) | < 30 µM | > 128 µg/mL | 32 to 64 µg/mL (≈ 53.9 to 108 µM) | > 128 µg/mL | > 128 µg/mL | 32 to 64 µg/mL (≈ 53.9 to 108 µM) | < 0.25 µg/mL | 0.5 to 1 µg/mL (≈ 0.843 to 1.69 µM)
6 | CCN1CCN(C(=O)N[C@H](C(=O)N[C@H]2Cc3cccc(C(=O)O)c3OB2O)c2cc(Cl)c(O)cc2Cl)C(=O)C1=O (single isomer, unassigned) [Example 92] | B (B represents a potency between 30 μM and 500 μM inclusive) | > 500 µM | > 128 µg/mL | > 128 µg/mL | > 128 µg/mL | > 128 µg/mL | > 128 µg/mL | 2 to 4 µg/mL (≈ 3.37 to 6.74 µM) | 8 to 16 µg/mL (≈ 13.5 to 27 µM)
7 | CCN1CCN(C(=O)NC(C(=O)N[C@H]2Cc3ccc(F)c(C(=O)O)c3OB2O)c2ccc(C(=O)O)cc2)C(=O)C1=O (stereo partly drawn) [Example 15, (3R)-3-(2-(4-carboxyphenyl)-2-(4-ethyl-2,3-dioxopiperazine-1-carboxamido)acetamido)-7-fluoro-2-hydroxy-3,4-dihydro-2H-benzo[e][1,2]oxaborinine-8-carboxylic acid] | D (D represents a potency <10 μM) | < 30 µM | 32 to 64 µg/mL (≈ 56.1 to 112 µM) | 8 to 16 µg/mL (≈ 14 to 28.1 µM) | > 128 µg/mL | > 128 µg/mL | > 128 µg/mL | 0.5 to 1 µg/mL (≈ 0.877 to 1.75 µM) | < 0.25 µg/mL
8 | CCN1CCN(C(=O)NC(C(=O)N[C@H]2Cc3cccc(C(=O)O)c3OB2O)c2ccc(O)c(NC(C)=O)c2)C(=O)C1=O (stereo partly drawn) [Example 17, (3R)-3-(2-(3-acetamido-4-hydroxyphenyl)-2-(4-ethyl-2,3-dioxopiperazine-1-carboxamido)acetamido)-2-hydroxy-3,4-dihydro-2H-benzo[e][1,2]oxaborinine-8-carboxylic acid] | D (D represents a potency <10 μM) | 30 to 500 µM | > 128 µg/mL | 8 to 16 µg/mL (≈ 13.8 to 27.5 µM) | > 128 µg/mL | > 128 µg/mL | 32 to 64 µg/mL (≈ 55 to 110 µM) | 0.5 to 1 µg/mL (≈ 0.86 to 1.72 µM) | 2 to 4 µg/mL (≈ 3.44 to 6.88 µM)
9 | CCN1CCN(C(=O)NC(C(=O)N[C@H]2Cc3ccc(F)c(C(=O)O)c3OB2O)c2nc(N)sc2F)C(=O)C1=O (stereo partly drawn) [Example 18, (3R)-3-(2-(2-amino-5-fluorothiazol-4-yl)-2-(4-ethyl-2,3-dioxopiperazine-1-carboxamido)acetamido)-7-fluoro-2-hydroxy-3,4-dihydro-2H-benzo[e][1,2]oxaborinine-8-carboxylic acid] | D (D represents a potency <10 μM) | < 30 µM | > 128 µg/mL | 8 to 16 µg/mL (≈ 14.1 to 28.3 µM) | 32 to 64 µg/mL (≈ 56.5 to 113 µM) | 32 to 64 µg/mL (≈ 56.5 to 113 µM) | 8 to 16 µg/mL (≈ 14.1 to 28.3 µM) | 0.5 to 1 µg/mL (≈ 0.883 to 1.77 µM) | 0.5 to 1 µg/mL (≈ 0.883 to 1.77 µM)
10 | CCN1CCN(C(=O)N[C@H](C(=O)N[C@H]2Cc3cccc(C(=O)O)c3OB2O)c2nc(Cl)c(C(=O)O)cc2F)C(=O)C1=O [Example 19, 6-((S)-2-(((R)-8-carboxy-2-hydroxy-3,4-dihydro-2H-benzo[e][1,2]oxaborinin-3-yl)amino)-1-(4-ethyl-2,3-dioxopiperazine-1-carboxamido)-2-oxoethyl)-2-chloro-5-fluoronicotinic acid] | D (D represents a potency <10 μM) | < 30 µM | > 128 µg/mL | 32 to 64 µg/mL (≈ 52.8 to 106 µM) | > 128 µg/mL | > 128 µg/mL | > 128 µg/mL | 0.5 to 1 µg/mL (≈ 0.825 to 1.65 µM) | 0.5 to 1 µg/mL (≈ 0.825 to 1.65 µM)
11 | CCN1CCN(C(=O)NC(C(=O)N[C@H]2Cc3cccc(C(=O)O)c3OB2O)c2ncc(C(=O)O)cc2F)C(=O)C1=O (stereo partly drawn) [Example 20, 6-(2-(((R)-8-carboxy-2-hydroxy-3,4-dihydro-2H-benzo[e][1,2]oxaborinin-3-yl)amino)-1-(4-ethyl-2,3-dioxopiperazine-1-carboxamido)-2-oxoethyl)-5-fluoronicotinic acid] | D (D represents a potency <10 μM) | < 30 µM | > 128 µg/mL | 8 to 16 µg/mL (≈ 14 to 28 µM) | > 128 µg/mL | > 128 µg/mL | 32 to 64 µg/mL (≈ 56 to 112 µM) | < 0.25 µg/mL | 0.5 to 1 µg/mL (≈ 0.875 to 1.75 µM)
12 | CCN1CCN(C(=O)NC(C(=O)N[C@H]2Cc3cccc(C(=O)O)c3OB2O)c2ccc(O)c(N(S(C)(=O)=O)S(C)(=O)=O)c2)C(=O)C1=O (stereo partly drawn) [Example 21, (3R)-3-(2-(4-ethyl-2,3-dioxopiperazine-1-carboxamido)-2-(4-hydroxy-3-(N-(methylsulfonyl)methylsulfonamido)phenyl)acetamido)-2-hydroxy-3,4-dihydro-2H-benzo[e][1,2]oxaborinine-8-carboxylic acid] | D (D represents a potency <10 μM) | < 30 µM | > 128 µg/mL | 32 to 64 µg/mL (≈ 46 to 92 µM) | > 128 µg/mL | > 128 µg/mL | 32 to 64 µg/mL (≈ 46 to 92 µM) | < 0.25 µg/mL | 2 to 4 µg/mL (≈ 2.88 to 5.75 µM)
13 | CCN1CCN(C(=O)NC(C(=O)N[C@H]2Cc3cccc(C(=O)O)c3OB2O)c2ccc(O)c(NS(C)(=O)=O)c2)C(=O)C1=O (stereo partly drawn) [Example 22, (3R)-3-(2-(4-ethyl-2,3-dioxopiperazine-1-carboxamido)-2-(4-hydroxy-3-(methylsulfonamido)phenyl)acetamido)-2-hydroxy-3,4-dihydro-2H-benzo[e][1,2]oxaborinine-8-carboxylic acid] | D (D represents a potency <10 μM) | < 30 µM | > 128 µg/mL | 8 to 16 µg/mL (≈ 13 to 25.9 µM) | > 128 µg/mL | 32 to 64 µg/mL (≈ 51.8 to 104 µM) | 32 to 64 µg/mL (≈ 51.8 to 104 µM) | < 0.25 µg/mL | 0.5 to 1 µg/mL (≈ 0.81 to 1.62 µM)
14 | NCCN1CCN(C(=O)NC(C(=O)N[C@H]2Cc3ccc(F)c(C(=O)O)c3OB2O)c2nc(N)sc2F)C(=O)C1=O (stereo partly drawn) [Example 24, (3R)-3-(2-(2-amino-5-fluorothiazol-4-yl)-2-(4-(2-aminoethyl)-2,3-dioxopiperazine-1-carboxamido)acetamido)-7-fluoro-2-hydroxy-3,4-dihydro-2H-benzo[e][1,2]oxaborinine-8-carboxylic acid] | B (B represents a potency between 30 μM and 500 μM inclusive) | 30 to 500 µM | > 128 µg/mL | 32 to 64 µg/mL (≈ 55 to 110 µM) | > 128 µg/mL | 32 to 64 µg/mL (≈ 55 to 110 µM) | 32 to 64 µg/mL (≈ 55 to 110 µM) | 2 to 4 µg/mL (≈ 3.44 to 6.88 µM) | 2 to 4 µg/mL (≈ 3.44 to 6.88 µM)
